From article PMC9884089 (Journal of Medicinal Chemistry, 2023)
Like-named read-outs stand apart in the source and are kept apart here.

Key:
[1] = Thermodynamic water solubility; type: physicochemical; details: distilled water, r.t.
Protocol: Each solid compound (1 mg) was added to 1 mL of distilled water. Each sample was mixed at r.t. in a shaker water bath 24 h. The resulting suspension was filtered through a 0.45 μm nylon filter (Acrodisc), and the solubilized compound was quantified in triplicate using UV/LC–MS method reported above by comparison with the appropriate calibration curve that was obtained from samples of the compound dissolved in methanol at different concentrations.[94]

[2] = Metabolic stability in HLM; details: 37 °C, 1 h, NADPH regenerating system
Protocol: Each compound in DMSO solution was incubated at 37 °C for 1 h in phosphate buffer (25 mM pH 7.4), human liver microsomal protein (0.2 mg/mL), and in the presence of an NADPH regenerating system (NADPH 0.2 mM, […] 1 mM, D-glucose-6-phosphate 4 mM, 4 unit/mL glucose-6-phosphate dehydrogenase) in 48 mM MgCl2 at a final volume of 500 μL. The reaction was stopped by cooling in ice and quenched by adding 1.0 mL of acetonitrile. The reaction mixtures were then centrifuged (4000 rpm for 10 min), and the supernatant was taken, dried under nitrogen flow, and suspended in 100 μL of methanol. The parent drug and metabolites were subsequently determined by UV/LC–MS. The percentage of not metabolized compound was calculated by comparison with reference solutions. For each compound, the determination was performed in three independent experiments.

PARP2 = biological target: T1, PARP2 (Homo sapiens, UniProt Q9UGN5); assay: biochemical; type: biochemical; details: > = less than 50% inhibition at highest concentration; ≫ = no inhibition; read-out: PARP2 IC50
T1 construct: made in house
T1 sequence (Q9UGN5 whole entry): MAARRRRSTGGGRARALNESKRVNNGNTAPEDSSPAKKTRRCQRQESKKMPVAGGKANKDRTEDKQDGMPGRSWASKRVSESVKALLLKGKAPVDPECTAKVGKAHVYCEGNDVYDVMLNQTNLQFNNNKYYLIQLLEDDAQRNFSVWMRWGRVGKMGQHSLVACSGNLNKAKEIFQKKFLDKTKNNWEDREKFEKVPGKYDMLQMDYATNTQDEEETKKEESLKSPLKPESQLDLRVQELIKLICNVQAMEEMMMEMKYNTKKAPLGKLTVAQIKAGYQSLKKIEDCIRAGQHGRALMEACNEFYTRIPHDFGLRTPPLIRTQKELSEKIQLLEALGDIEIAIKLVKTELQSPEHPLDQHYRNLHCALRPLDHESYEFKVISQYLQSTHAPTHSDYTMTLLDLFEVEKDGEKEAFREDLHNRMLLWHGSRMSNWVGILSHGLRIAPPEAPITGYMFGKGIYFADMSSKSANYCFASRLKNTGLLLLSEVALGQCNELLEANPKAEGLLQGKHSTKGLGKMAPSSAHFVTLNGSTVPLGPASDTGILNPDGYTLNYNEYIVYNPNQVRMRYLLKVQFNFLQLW
Protocol: Inhibition experiments were performed using a homogenous assay measuring NAD+ consumption.[80]−[82] Reactions were carried out in quadruplicate, and IC50 curves were fitted using sigmoidal dose response curve (four variables) in GraphPad Prism version 8.02. […] Assay conditions for PARP2, TNKS2, PARP10, and PARP15 (Tables 1–3) were recently reported.[44] The conditions for the proximity-enhanced mono-ART assays (Table 4) were also reported recently.[47] PARP6 (400 nM) inhibition was measured using the standard buffer (50 mM sodium phosphate pH 7.0) for the enhanced activity assay using 500 nM NAD^+ and 18 h incubation in r.t..

PARP10 = biological target: T2, PARP10 (Homo sapiens, UniProt Q53GL7); assay: Cellular MARylation assay (immunoblot of PARP10 auto-MARylation); type: cell-based; details: 10 μM, 16 h, HeLa cells
T2 construct: made in house
T2 sequence (Q53GL7 1-1025): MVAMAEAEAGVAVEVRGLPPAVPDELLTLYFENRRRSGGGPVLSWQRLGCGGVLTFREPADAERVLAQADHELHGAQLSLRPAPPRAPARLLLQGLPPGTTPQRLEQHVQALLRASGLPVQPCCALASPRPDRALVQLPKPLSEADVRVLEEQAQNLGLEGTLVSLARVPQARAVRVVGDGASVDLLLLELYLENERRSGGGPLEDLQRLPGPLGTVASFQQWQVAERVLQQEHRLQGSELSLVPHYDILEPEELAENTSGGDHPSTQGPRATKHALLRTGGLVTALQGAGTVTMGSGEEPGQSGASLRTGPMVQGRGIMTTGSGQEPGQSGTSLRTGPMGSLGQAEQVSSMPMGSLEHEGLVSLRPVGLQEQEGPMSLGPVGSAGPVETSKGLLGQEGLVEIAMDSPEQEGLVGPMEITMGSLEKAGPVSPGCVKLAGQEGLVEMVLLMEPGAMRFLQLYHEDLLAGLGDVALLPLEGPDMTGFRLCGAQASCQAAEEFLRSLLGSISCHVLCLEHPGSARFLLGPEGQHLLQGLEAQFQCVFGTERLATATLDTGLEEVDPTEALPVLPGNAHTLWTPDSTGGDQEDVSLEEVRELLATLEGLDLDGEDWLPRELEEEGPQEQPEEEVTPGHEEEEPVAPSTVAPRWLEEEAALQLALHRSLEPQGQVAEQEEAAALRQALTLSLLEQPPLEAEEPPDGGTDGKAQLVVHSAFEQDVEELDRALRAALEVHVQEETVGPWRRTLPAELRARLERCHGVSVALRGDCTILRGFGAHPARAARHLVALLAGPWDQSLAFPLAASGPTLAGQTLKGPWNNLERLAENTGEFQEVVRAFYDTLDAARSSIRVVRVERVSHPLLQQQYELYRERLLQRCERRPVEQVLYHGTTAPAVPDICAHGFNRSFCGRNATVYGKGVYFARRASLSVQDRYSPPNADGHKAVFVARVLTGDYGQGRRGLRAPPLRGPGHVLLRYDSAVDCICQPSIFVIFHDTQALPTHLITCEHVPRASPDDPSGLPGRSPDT
Protocol: Cells were lysed in RIPA lysis buffer [10 mM Tris pH 7.4; 150 mM NaCl; 1% NP-40; 1% desoxycholate; 0,1% SDS; protease inhibitor cocktail (Sigma-Aldrich) and 10 μM olaparib (Selleck Chemicals)], and lysates were analyzed via SDS-PAGE and immunoblotting using specific anti-PARP10 (Eurogentec),[93] anti-MAR/PAR (Cell Signaling, E6F6A, anti-poly/Mono-ADP-ribose antibody), and anti-α-tubulin (B 5-1-2, Sigma-Aldrich) antibodies.

Stability in PBS pH 7.4 = type: physicochemical; details: 500 μM
Protocol: (§1) For the stability measurements in polar solvents, each compound was dissolved at room temperature in MeOH or PBS (0.025 M, pH 7.4) up to a final concentration of 500 μM.

Stability in MeOH = type: physicochemical; details: 500 μM
Protocol: as §1

[3] = read-out: water solubility (log s) (converted)

| SMILES | solubility at 24 h ([1]; read-out: water solubility) [µg/mL] | solubility at 24 h [1, 3] [µM] | metabolic stablity % (unchanged compound) [2] [%] | IC50 (PARP2) [µM] | inhibition of auto-MARylation of overexpressed PARP10 in cells (PARP10) | stab in PBS pH 7.4 (Stability in PBS pH 7.4) [h] | stab. in MeOH (Stability in MeOH) [h] |
| --- | --- | --- | --- | --- | --- | --- | --- |
| COc1ccc(OC)c2c1sc1nnc(N)n12 [Compound 27, 5,8-Dimethoxy[1,2,4]triazolo[3,4-b][1,3]benzothiazol-3-amine] | 12.6 | 50.4 | 99.11 | 10 | effectively inhibited | >24 | >24 |
| Cc1ccc2c(c1)sc1nnc(N)n12 [Compound 21, 7-Methyl[1,2,4]triazolo[3,4-b][1,3]benzothiazol-3-amine] | 37.6 | 184 | 99.14 | – | effectively inhibited | >24 | >24 |
